Results reported in US20090203716A1, “Pyrimidine low molecular weight ligands for modulating hormone receptors” (The Government of the United States of America as …, priority 2006, published 2009).
“Also recorded” adds a separate entry of the source.

How the values were obtained:
TSHR [1] = target: T1, TSHR (Homo sapiens, UniProt P16473); assay: inhibition of TSH-mediated cAMP response in HEK-EM 293 cells stably expressing TSHR; format: cell-based; set-up: expressed in transfected cells
Protocol: (§1) Transiently transfected cells were cultured for 48 hours before the cAMP assay. HEK-EM 293 cells stably expressing TSHR, LHCGR or FSHR were seeded into 24-well plates with a density of 2.2×10^5 cells/well 24 hours before the cAMP assay. After removal of growth medium, cells were incubated for 1 hour in HBSS (Cellgro) with 10 mM HEPES (Cellgro) containing 1 mM 3-isobutyl-1-methylxanthine (IBMX) (Sigma) and the ligand of interest in a humidified 5% CO2 incubator at 37° C. The intracellular cAMP content was determined with the cAMP Biotrak Enzymeimmunoassay (EIA) System (GE Healthcare). Data were analyzed using GraphPad Prism 4 for Windows. Receptor expression was measured as described in Jaschke et al., J Biol Chem 281:9841-9844.
The TSH-mediated cAMP response of TSHR was inhibited by a maximum of 70.8±5.5% at 30 μM compound 52. […] Compound 52 has no activity at FSHR.
To exclude the possibility that compound 52 might be acting independently of TSHR by building aggregates with TSH, thereby inhibiting the TSH-induced response, tests were conducted for a possible aggregation between these two ligands. Compound 52 and TSH were preincubated for up to 15 minutes before addition to HEK-EM 293 cells stably expressing TSHR. […] There was no difference in the antagonistic effect whether TSH and compound 52 were preincubated together or not (data not shown) thereby excluding the possibility that its effect was caused by aggregation with TSH.

solubility = format: physicochemical; conditions: compared to compound 52
TSHR [2] = target: T1, TSHR; assay: TsAb (Graves' disease sera)-stimulated cAMP accumulation in HEK-EM 293 cells expressing TSHR; format: cell-based; set-up: expressed in transfected cells
Protocol: as §1
To assess the therapeutic potential of compound 52 in patients with Graves' disease, its ability to inhibit TSHR activation by TsAbs was tested. First, four patient sera (GD 5, 19, 29, 30) were used at a dilution of 1:50 to test the effect of compound 52 on TsAb-stimulated cAMP accumulation in HEK-EM 293 cells expressing TSHR. All four sera increased cAMP accumulation, but to different extents (FIG. 6). To assess inhibition, cAMP accumulation was measured in response to TsAbs in the presence of 30 μM compound 52. Indeed, compound 52 reduced TsAb-mediated responses of the different sera (set at 100% for each patient's serum) by 28% to 79% (FIG. 6).

LHCG receptor = LHCG receptor (Mus musculus, UniProt P30730); conditions: ovulation induction model; cited from earlier work
human TSH receptor = target: T2, human TSH receptor (Homo sapiens, UniProt P16473); assay: intracellular cAMP accumulation, agonism at TSHR stably expressed in HEK EM 293 cells; format: cell-based
T2 construct: expressed in transfected cells
Protocol: With reference to Table 1, exemplary disclosed compounds were evaluated against human TSH receptor and human LHCG receptor that were stably expressed in HEK 293 EM cells as previously described by Libert et al. (Biochem. Biophys. Res. Commun. 1989, 165, 1250-1255); and by Schulz et al. (Mol. Endocrinol. 1999, 13, 181-190). Cell surface expression of TSH receptor and LHCG receptor were determined via FACS analysis (Kleinau, G.; Jäschke, H.; Neumann, S.; Lättig, S.; Paschke, R.; Krause, G. J. Biol. Chem. 2004, 279, 51590-51600). Agonism of compounds 3-20 were determined via measurement of intracellular cyclic AMP accumulation. […] For example, […] certain compounds disclosed herein exerted no discernible effect on the FSH receptor.
Cells were cultured for 48 h in 24-well plates before incubation for 1 h in serum-free DMEM containing 1 mM 3-isobutyl-1-methylxanthine (IBMX) (SIGMA) and bovine TSH (1.8 μM) (SIGMA) or human LH (1000 ng/ml) (Dr. A. Parlow, NIDDK National Hormone and Pituitary Program) or compounds 3-19 (0-100 μM) in a humidified 5% CO2 incubator. Following aspiration of the medium after incubation with compounds, cells were lysed using lysis buffer 1 of the cAMP Biotrak Enzymeimmunoassay (EIA) System (Amersham Biosciences). The cAMP content of the cell lysate was determined using the manufacturer's protocol. The efficacy of receptor activation by small molecule modulators is expressed as % of maximum response of LHCG receptor or TSH receptor to LH or TSH, respectively. The potency (EC50) was obtained from dose response curves (0-100 μM compound) by data analysis with GraphPad Prism 4 for Windows. With reference to FIG. 1, intracellular cAMP production was determined in response to 100 μM of each compound and is expressed as % of maximum response of TSHR/LHCGR to TSH (100 mU/ml)/LH (1000 ng/ml). The data are presented as mean±SEM of two independent experiments, each performed in duplicate.
as §1

human LHCG receptor = target: T3, human LHCG receptor (Homo sapiens, UniProt P22888); assay: intracellular cAMP accumulation, agonism at LHCGR stably expressed in HEK EM 293 cells; format: cell-based
T3 construct: expressed in transfected cells
Protocol: With reference to Table 1, exemplary disclosed compounds were evaluated against human TSH receptor and human LHCG receptor that were stably expressed in HEK 293 EM cells as previously described by Libert et al. (Biochem. Biophys. Res. Commun. 1989, 165, 1250-1255); and by Schulz et al. (Mol. Endocrinol. 1999, 13, 181-190). Cell surface expression of TSH receptor and LHCG receptor were determined via FACS analysis (Kleinau, G.; Jäschke, H.; Neumann, S.; Lättig, S.; Paschke, R.; Krause, G. J. Biol. Chem. 2004, 279, 51590-51600).
Following aspiration of the medium after incubation with compounds, cells were lysed using lysis buffer 1 of the cAMP Biotrak Enzymeimmunoassay (EIA) System (Amersham Biosciences). The cAMP content of the cell lysate was determined using the manufacturer's protocol. […] The potency (EC50) was obtained from dose response curves (0-100 μM compound) by data analysis with GraphPad Prism 4 for Windows. […] The data are presented as mean±SEM of two independent experiments, each performed in duplicate.
as §1

TSHR mutant M9 = assay: cAMP production in HEK-EM 293 cells transiently expressing TSHR mutant M9; format: cell-based, human
Protocol: HEK-EM 293 cells were grown in Dulbecco's modified Eagle's Medium (DMEM) supplemented with 10% fetal bovine serum, 100 units/ml penicillin and 10 μg/ml streptomycin (Life Technologies Inc.) at 37° C. in a humidified 5% CO2 incubator. Cells were transiently transfected with wild type TSHR and mutant receptors in 24-well plates (7.5×10^4 cells per well) with 0.4 μg DNA/well using FuGENE™ 6 reagent (Roche) according to the manufacturer's protocol.
The M9 mutant is described in Jaschke et al., J Biol Chem 281:9841-9844. The Y7.42A mutant was introduced into hTSHR-pcDNA3.1 via the QuickChange XL Site-Directed Mutagenesis kit (Stratagene). The construct was verified by sequencing (MWG Biotech).
Transiently transfected cells were cultured for 48 hours before the cAMP assay. HEK-EM 293 cells stably expressing TSHR, LHCGR or FSHR were seeded into 24-well plates with a density of 2.2×10^5 cells/well 24 hours before the cAMP assay. […] The intracellular cAMP content was determined with the cAMP Biotrak Enzymeimmunoassay (EIA) System (GE Healthcare). Data were analyzed using GraphPad Prism 4 for Windows. Receptor expression was measured as described in Jaschke et al., J Biol Chem 281:9841-9844.

T1 sequence (P16473 21-764): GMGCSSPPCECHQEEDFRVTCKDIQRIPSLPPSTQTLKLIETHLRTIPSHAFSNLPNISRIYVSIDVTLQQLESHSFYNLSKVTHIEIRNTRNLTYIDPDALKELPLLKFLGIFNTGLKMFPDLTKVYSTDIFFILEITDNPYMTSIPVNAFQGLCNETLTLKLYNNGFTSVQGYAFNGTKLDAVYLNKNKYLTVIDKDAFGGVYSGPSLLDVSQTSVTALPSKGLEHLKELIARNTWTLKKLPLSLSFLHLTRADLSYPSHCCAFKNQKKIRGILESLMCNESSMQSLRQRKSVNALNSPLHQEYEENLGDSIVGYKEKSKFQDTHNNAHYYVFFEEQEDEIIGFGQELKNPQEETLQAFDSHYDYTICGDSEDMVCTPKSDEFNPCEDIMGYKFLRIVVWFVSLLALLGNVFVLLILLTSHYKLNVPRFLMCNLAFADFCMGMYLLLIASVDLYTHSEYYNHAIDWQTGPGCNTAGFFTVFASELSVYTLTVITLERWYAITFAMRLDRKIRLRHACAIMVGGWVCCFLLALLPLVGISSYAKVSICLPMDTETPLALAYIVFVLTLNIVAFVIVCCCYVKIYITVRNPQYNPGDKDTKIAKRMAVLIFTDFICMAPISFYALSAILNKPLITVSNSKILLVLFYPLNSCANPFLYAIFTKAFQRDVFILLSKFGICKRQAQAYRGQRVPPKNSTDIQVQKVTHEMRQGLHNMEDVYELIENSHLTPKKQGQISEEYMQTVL
T2 sequence (P16473 21-764): as above
T3 sequence (P22888 27-699): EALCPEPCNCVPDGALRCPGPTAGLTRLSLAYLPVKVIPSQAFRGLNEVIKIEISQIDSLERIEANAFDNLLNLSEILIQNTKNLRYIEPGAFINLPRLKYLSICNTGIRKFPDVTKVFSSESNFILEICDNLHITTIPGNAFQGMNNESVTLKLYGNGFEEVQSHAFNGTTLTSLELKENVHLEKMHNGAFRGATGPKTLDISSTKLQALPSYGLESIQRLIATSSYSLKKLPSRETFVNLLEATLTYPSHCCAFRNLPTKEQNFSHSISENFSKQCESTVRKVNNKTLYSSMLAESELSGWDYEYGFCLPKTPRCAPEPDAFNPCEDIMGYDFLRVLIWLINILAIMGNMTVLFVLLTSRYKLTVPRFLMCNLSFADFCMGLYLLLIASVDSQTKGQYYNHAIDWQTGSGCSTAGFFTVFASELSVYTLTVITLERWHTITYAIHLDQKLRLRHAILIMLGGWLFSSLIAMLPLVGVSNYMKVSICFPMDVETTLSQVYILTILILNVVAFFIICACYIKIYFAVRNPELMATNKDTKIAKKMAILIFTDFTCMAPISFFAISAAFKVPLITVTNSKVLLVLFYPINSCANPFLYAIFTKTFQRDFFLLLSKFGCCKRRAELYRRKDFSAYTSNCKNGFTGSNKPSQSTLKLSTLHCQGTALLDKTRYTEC
Sequence of LHCG receptor (P30730 27-700): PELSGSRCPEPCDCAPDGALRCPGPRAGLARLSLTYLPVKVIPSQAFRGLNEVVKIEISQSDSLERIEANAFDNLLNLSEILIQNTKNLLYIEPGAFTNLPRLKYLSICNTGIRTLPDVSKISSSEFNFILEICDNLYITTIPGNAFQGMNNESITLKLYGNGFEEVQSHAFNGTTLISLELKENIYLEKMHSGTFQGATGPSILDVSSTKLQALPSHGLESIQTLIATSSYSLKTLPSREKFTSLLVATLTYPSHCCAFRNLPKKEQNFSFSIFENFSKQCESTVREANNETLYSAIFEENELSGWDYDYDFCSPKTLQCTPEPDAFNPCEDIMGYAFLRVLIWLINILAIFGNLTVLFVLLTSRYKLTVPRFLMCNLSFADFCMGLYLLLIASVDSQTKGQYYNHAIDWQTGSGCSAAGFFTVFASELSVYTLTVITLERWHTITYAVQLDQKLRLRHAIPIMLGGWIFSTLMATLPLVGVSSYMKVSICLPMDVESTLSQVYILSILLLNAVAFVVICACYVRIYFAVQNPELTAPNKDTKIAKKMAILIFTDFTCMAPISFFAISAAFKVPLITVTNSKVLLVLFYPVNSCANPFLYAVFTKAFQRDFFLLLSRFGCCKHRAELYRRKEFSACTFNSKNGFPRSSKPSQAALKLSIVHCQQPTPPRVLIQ

## C[S+]([O-])c1nc(-c2ccc(/C=C/CS(C)(=O)=O)cc2)c2c(N)c(C(=O)NC(C)(C)C)sc2n1 (stereo not shown) [Compound 52/2]
TSHR [1]
  antagonistic activity at TSHR in cAMP assay: antagonist activity similar to compound 52; also recorded: antagonistic activity
solubility
  solubility: improved solubility

## CC/C=C/c1ccc(-c2nc(SC)nc3sc(C(=O)NC(C)(C)C)c(N)c23)cc1 [N-tert-butyl-5-amino-4-(4-((E)-but-1-enyl)phenyl)-2-(methylthio)thieno[2,3-d]pyrimidine-6-carboxamide]
TSHR [2]
  inhibition of TSH receptor activation by antibodies (IgG) from Graves' disease sera: inhibit

## COc1cccc(-c2nc(SC)nc3sc(C(=O)NC(C)(C)C)c(N)c23)c1 [Compound 3, N-tert-butyl-5-amino-4-(3-methoxyphenyl)-2-(methylthio)thieno[2,3-d]pyrimidine-6-carboxamide, reference compound]
LHCG receptor
  in vivo efficacy for LHCG receptor: demonstrated
Human TSH receptor
  partial agonism, % of TSH activity at TSHR: 23%
Human TSH receptor; % of maximum response of TSHR to TSH (100 mU/ml), * estimated maximum response at 100 μM compound
  % Max. Resp. @ TSHR in μM: 23.4 ± 3.6%
Human TSH receptor; cAMP
  agonist activity at TSHR: partial agonist
Human TSH receptor; read-out: EC50 (TSHR) in μm [95% C.I.], cAMP, HEK EM 293 cells, dose response 0-100 μM compound, ** estimated EC50, no plateau
  EC50: 6.5 µM
Human LHCG receptor; % of maximum response of LHCGR to LH (1000 ng/ml)
  % Max. Resp. @ LHCGR in μM: 45.8 ± 5.9%
Human LHCG receptor; read-out: EC50 (LHCGR) in μM [95% C.I.], cAMP, HEK EM 293 cells, dose response 0-100 μM compound
  EC50: 0.3 µM
TSHR [1]
  inhibition of TSH stimulation of TSH receptor signaling: 35%
TSHR [1]; with EC50 dose of TSH
  IC50: 11 µM
TSHR mutant M9
  agonism at M9: full agonist
